Experimental findings from patent publication EP1038880B1, “Androstanes and pregnanes for allosteric modulation of GABA receptor” (priority 1994, dated 1995) are described below.

The target of this assay is GR complex. Description: [35S]TBPS binding assay (inhibition of [35S]TBPS binding, cerebral cortex P2 homogenate). Set-up: species or system rat. The note with it: for IC50: 2 nM [35S]TBPS, rat cerebral cortex P2 homogenate; for IMAX: maximum inhibition of [35S]TBPS binding. On the procedure:
We performed several experiments to determine the nature of the modulation of [^35S]TBPS as affected by the compounds of the invention.
These procedures were performed as follows:
Brains from male Sprague-Dawley rats were removed immediately following sacrifice and the cerebral cortices dissected over ice. […] Briefly, the cortices were gently homogenized in 0.32 M sucrose followed by centrifugation at 1000 x g for 10 minutes. The supernatant was collected and centrifuged at 9000 x g for 20 minutes. The resultant P2 pellet was suspended as a 10% (original wet weight/volume) suspension in 50 mM Na/K phosphate buffer (pH 7.4) 200 mM NaCl to form the homogenate.
One hundred microliter […] aliquots of the P2 homogenate (0.5 milligrams (mg) protein) were incubated with 2 nanomolar (nM) [^35S]TBPS (70-110 curies/millimole; New England Nuclear, Boston, MA) in the presence or absence of the naturally occurring steroids or their synthetic derivatives to be tested. The tested compounds were dissolved in dimethylsulfoxide (Baker Chem. Co., Phillipsbury, NJ) and added to the incubation mixture in 5 µL aliquots. The incubation mixture was brought to a final volume of 1 mL with buffer. Non-specific binding was defined as binding in the presence of […] TBPS. The effect and specificity of GABA (Sigma Chem. Co., St. Louis, MO) was evaluated by performing all assays in the presence of GABA plus (+)bicuculline (Sigma Chem. Co.). maintained at 25°C for 90 minutes (steady state conditions) were terminated by rapid filtration through glass fiber filters (No. 32, Schleicher and Schuell, Keene, NH). Filter-bound radioactivity was quantitated by liquid scintillation spectrophotometry.
Various compounds were screened to determine their potential as modulators of [^35S]TBPS binding in vitro. These assays were performed in accordance with the above discussed procedures. […] It is an indication of a compound's in vitro potency. Maximum inhibition is an indication of a compound's in vitro efficacy.

SMILES strings stand for the structures.

Molecule `CC(=O)C#C[C@@]1(O)CC[C@@]2(C)[C@H](CC[C@@H]3[C@@H]2CC[C@]2(C)[C@@H](C(C)=O)CC[C@@H]32)C1` [3α-Hydroxy-3β-(3'-oxobutynyl)-5β-pregnan-20-one] yielded a concentration for half-maximal inhibition (IC50) of 2690 nM and an IMAX of 107%.
On to `CC(=O)[C@H]1CC[C@H]2[C@@H]3CC[C@@H]4C[C@@](O)(C#Cc5ccc(N(C)C)cc5)CC[C@]4(C)[C@H]3CC[C@]12C` [3β-(4'-dimethylaminophenyl)ethynyl-3α-hydroxy-5β-pregnan-20-one], for which the IC50 was 28 nM and the IMAX is given as 77%.
On the same counts, the results for `C[C@]12CC[C@@H](O)C[C@@H]1CC[C@@H]1[C@@H]2CC[C@]2(C)[C@@H](C(=O)Cn3cccn3)CC[C@@H]12` [3α-hydroxy-21-(1'-pyrazolyl)-5α-pregnan-20-one] are 100 nM and 98%.
`CCOC(=O)c1ccc(C#CC2(O)CCC3C(CCC4C3CCC3(C)C(C(C)=O)CCC43)C2)cc1` (stereo not drawn) [3β-(4'-Carboxyphenylethynyl)-3α-hydroxy-19-nor-5β-pregnan-20-one ethyl ester] came in with an IC50 of 15 nM and an IMAX of 94%.
In turn, `CC(C)CCC[C@@H](C)[C@H]1CC[C@H]2[C@@H]3CC=C4C[C@@H](O)CC[C@]4(C)[C@H]3CC[C@]12C` [Cholesterol, reference compound] displayed an IMAX of 0%.
Take `CC(=O)C1CCC2C3CCC4CC(O)(C#CC=O)CCC4(C)C3CCC12C` (stereo not drawn) [3α-Hydroxy-3β-(3'-oxopropynyl)-5β-pregnan-20-one]: the IC50 came to 1720 nM and the IMAX is reported as 76%.
As to `C[C@]12CC[C@](O)(C#CCCO)C[C@H]1CC[C@@H]1[C@@H]2CC[C@]2(C)[C@@H](C(=O)Cn3ccnc3)CC[C@@H]12` [3α-Hydroxy-3β-(4-hydroxybutyn-1-yl)-21-(1-imidazolyl)-5β-pregnan-20-one], the 50% inhibitory concentration (IC50) came out at 54 nM and the IMAX is reported as 93%.
`CC(=O)[C@H]1CC[C@H]2[C@@H]3CC[C@@H]4C[C@@](O)(C#CCCO)CC[C@]4(C)[C@H]3C(=O)C[C@]12C` [3β-(4'-Hydroxy-1'-butynyl)-3α-hydroxy-5β-pregnan-11,20-dione] returned an IC50 of 268 nM and an IMAX of 102%.
The molecule `CC(=O)[C@H]1CC[C@H]2[C@@H]3CC[C@@H]4C[C@@](O)(C#Cc5ccncc5)CC[C@]4(C)[C@H]3CC[C@]12C` [3α-Hydroxy-3β-(4-pyridyl)ethynyl-5β-pregnan-20-one] registered a half-inhibitory concentration (IC50) of 149 nM and an IMAX of 103%.
On the same counts, the results for `CC(=O)[C@H]1CC[C@H]2[C@@H]3CC[C@@H]4C[C@@](O)(C#CCn5ccnc5)CC[C@]4(C)[C@H]3CC[C@]12C` [3α-Hydroxy-3β-[3'-(N-imidazolyl)-1'-propynyl)-5β-pregnan-20-one] are 2720 nM and 107%.
On the same counts, the results for `CC(=O)[C@H]1CC[C@H]2[C@@H]3CC[C@@H]4C[C@@](O)(C#CCCC#N)CC[C@]4(C)[C@H]3CC[C@]12C` [3β-(4-cyano-1-butynyl)-3α-hydroxy-5β-pregnan-20-one] are 131 nM and 86%.
On the same counts, the results for `CC(=O)[C@H]1CC[C@H]2[C@@H]3CC[C@@H]4C[C@@](O)(C#CCO)CC[C@]4(C)[C@H]3CC[C@]12C` [3β-(3'-hydroxy-1'-propynyl)-3α-hydroxy-5β-pregnan-20-one] are 137 nM and 93%.
`C[C@]12CC[C@@H](O)C[C@@H]1CC[C@@H]1[C@@H]2CC[C@]2(C)[C@@H](C(=O)Cn3ccc(=O)[nH]c3=O)CC[C@@H]12` [3α-Hydroxy-21-(1'-uracil)-5α-pregnan-20-one] displayed an IC50 of 434 nM and an IMAX of 90%.
Molecule `CC12CCC(O)(C#CCCO)CC1CCC1C2CCC2(C)C(C(=O)Cn3cncn3)CCC12` (stereo not drawn) [3α-hydroxy-3β-(4-hydroxybutyn-1-yl)-21-(1,2,4-triazol-1-yl)-5β-pregnan-20-one] returned an IMAX of 96%.
`C[C@]12CC[C@@H](O)C[C@H]1CC[C@@H]1[C@@H]2CC[C@]2(C)[C@@H](C(=O)Cn3cnc([N+](=O)[O-])c3)CC[C@@H]12` [3a-hydroxy-21-[1H-(4-nitro)imidazol-1-yl)-5β-pregnan-20-one]: the IC50 came to 267 nM and the IMAX came to 71%.
As for `CC(=O)C1CCC2C3CCC4CC(O)(C#Cc5ccc(O)cc5)CCC4(C)C3CCC12C` (stereo not drawn) [3β-(4'-Hydroxyphenylethynyl)-3α-hydroxy-5β-pregnan-20-one], the IC50 was determined as 1550 nM and the IMAX worked out at 88%.
On the same counts, the results for `CCN(CC)C(=O)c1ccc(C#CC2(O)CCC3(C)C(CCC4C3CCC3(C)C(C(C)=O)CCC43)C2)cc1` (stereo not drawn) [3β-[4'-(N,N-diethylcarboxamido)phenyl]ethynyl-3α-hydroxy-5β-pregnan-20-one] are 87 nM and 94%.
On the same counts, the results for `CC(=O)[C@H]1CC[C@H]2[C@@H]3CC[C@@H]4C[C@@](O)(CCCc5ccccc5)CC[C@]4(C)[C@H]3CC[C@]12C` [3α-Hydroxy-3β-(3'-phenylpropyl)-5β-pregnan-20-one] are 173 nM and 92%.
As to `CC(=O)C#C[C@@]1(O)CC[C@@]2(C)[C@@H](CC[C@@H]3[C@@H]2CC[C@]2(C)[C@@H](C(C)=O)CC[C@@H]32)C1` [3α-Hydroxy-3β-[3'-oxobutynyl]-5α-pregnan-20-one], the IC50 worked out at 6510 nM and the IMAX turned out to be 104%.
Molecule `CC12CCC(O)CC1CCC1C2CCC2(C)C(C(=O)Cn3cnc4ccccc43)CCC12` (stereo not drawn) [3α-hydroxy-21-(1'-benzimidazolyl)5β-pregnan-20-one] yielded an IC50 of 53 nM and an IMAX of 100%.
As for `COc1ccc(CC[C@@]2(O)CC[C@@]3(C)[C@H](CC[C@@H]4[C@@H]3CC[C@]3(C)[C@@H](C(C)=O)CC[C@@H]43)C2)cc1OC` [3β-(3',4'-Dimethoxyphenylethyl)-3α-hydroxy-5β-pregnan-20-one], the half-maximal inhibitory concentration (IC50) came to 507 nM and the IMAX is 66%.
On the same counts, the results for `CC(=O)[C@H]1CC[C@H]2[C@@H]3CC[C@H]4C[C@@](O)(C#CCC(C)O)CC[C@]4(C)[C@H]3CC[C@]12C` (mixture of isomers) [3β-[4'(R/S)-hydroxy-1'-pentynyl]-3α-hydroxy-5α-pregnan-20-one] are 178 nM and 101%.
On the same counts, the results for `CC12CCC(O)(C#CCO)CC1CCC1C2CCC2(C)C(C(=O)Cn3ccnn3)CCC12` (stereo not drawn) [3α-hydroxy-3β-(3-hydroxypropyn-1-yl)-21-(1,2,3-triazol-1-yl)-5β-pregnan-20-one] are 1090 nM and 101%.
On the same counts, the results for `CC(=O)[C@H]1CC[C@H]2[C@@H]3CC[C@@H]4C[C@@](O)(c5ccccc5)CC[C@]4(C)[C@H]3CC[C@]12C` [3α-Hydroxy-3β-phenyl-5β-pregnan-20-one, 3α-hydroxy-3β-phenyl-5β-pregnan-20-one] are 382 nM and 86%.
`CC(=O)[C@H]1CC[C@H]2[C@@H]3CC[C@@H]4C[C@@](O)(C#CCCCCO)CC[C@]4(C)[C@H]3CC[C@]12C` [3β-(6-hydroxy-1-hexynyl)-3α-hydroxy-5β-pregnan-20-one]: the IC50 worked out at 222 nM and the IMAX was found to be 99%.
On the same counts, the results for `CC(=O)OCCC#CC1(O)CCC2(C)C(CCC3C2CCC2(C)C(C(C)=O)CCC32)C1` (stereo not drawn) [3β-(4'-Acetoxy-1'-butynyl)-3α-hydroxy-5β-pregnan-20-one] are 20 nM and 96%.
On the same counts, the results for `CC(=O)C1CCC2C3CCC4CC(O)(C#CCn5nccn5)CCC4(C)C3CCC12C` (stereo not drawn) [3α-Hydroxy-3β-[3-(2'H-1,2,3-triazol-2'-yl)-1-propynyl]-5β-pregnan-20-one] are 66 nM and 98%.
On the same counts, the results for `C[C@@]1(O)CC[C@@]2(C)[C@@H](CC[C@@H]3[C@@H]2CC[C@]2(C)[C@@H](C(=O)Cn4ccnn4)CC[C@@H]32)C1` [3α-hydroxy-3β-methyl-21-(1',2',3'-triazol-1'-yl)-5α-pregnan-20-one] are 136 nM and 99%.
Consider `CC(=O)c1ccc(C#CC2(O)CCC3C(CCC4C3CCC3(C)C(C(C)=O)CCC43)C2)cc1` (stereo not drawn) [3β-(4'-Acetylphenyl)ethynyl-3α-hydroxy-19-nor-20-one], for which the half-inhibitory concentration (IC50) was 14 nM and the IMAX came to 103%.
As for `CC(=O)OCC#C[C@@]1(O)CC[C@@]2(C)[C@H](CC[C@@H]3[C@@H]2CC[C@]2(C)[C@@H](C(C)=O)CC[C@@H]32)C1` [3β-(3'-acetoxy-1'-propynyl)-3α-hydroxy-5β-pregnan-20-one], the IMAX is 104%.
In the case of `CC(=O)OCC(=O)c1ccc(C#C[C@@]2(O)CC[C@@]3(C)[C@H](CC[C@@H]4[C@@H]3CC[C@]3(C)[C@@H](C(C)=O)CC[C@@H]43)C2)cc1` [3α-hydroxy-3β-(4'-acetoxyacetylphenylethynyl)-5β-pregnan-20-one], the IC50 turned out to be 171 nM and the IMAX is recorded as 91%.

Broadly, the IC50 is the concentration at which inhibition is half-maximal.
